Measurements reported in paper PMC10786919, “Design-rules for stapled peptides with in vivo activity and their application to Mdm2/X antagonists” (Nature Communications, 2024).
In brackets after ≈: the same amount, converted by molar mass. Several values for one entry are separate records, joined by “and”; a condition that tells them apart may be missing. Equal values may be shown once. Read-outs that look alike come from different tables or passages of the source. Positions of bridges follow the written chain, without caps; N, C: chain ends. Non-standard residues stand in square brackets, D forms with d. Residues, ends and D or L forms follow the SMILES beside them. dPhe(4-CF3) = N[C@H](Cc1ccc(C(F)(F)F)cc1)C(=O)O; dTrp(6-F) = N[C@H](Cc1c[nH]c2cc(F)ccc12)C(=O)O; Lys(N3) = [N-]=[N+]=NCCCC[C@H](N)C(=O)O; R8 = C=CCCCCCC[C@@](C)(N)C(=O)O; Cba = N[C@@H](CC1CCC1)C(=O)O; R5 = C=CCCC[C@@](C)(N)C(=O)O; S5 = C=CCCC[C@](C)(N)C(=O)O; βAla = NCCC(=O)O

Key:
[1] = tested on: p53 responsive β-lactamase reporter in HCT116 cells; assay: cells; format: cell-based
Summary of the method: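 HCT116 cells stably carrying a p53-responsive β-lactamase reporter, seeded at 8000 cells/well, with 0.5% DMSO final. Reporter activity read by ToxBLAzer Dual Screen. Values are geometric means of at least three biological replicates.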

[2] = tested on: Jump-In T-REx CHO-K1 BLA cells; assay: cells; format: cell-based
[3] = Solubility assay (kinetic solubility, PBS pH 7); format: physicochemical
Summary of the method: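 Reference standards were made by diluting the 10 mM stock to 100 µM in acetonitrile:methanol:DMSO 10:80:10. Solubility in µM was calculated as the sample peak area divided by the standard peak area, multiplied by the standard concentration.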

[4] = Circular dichroism (CD) helicity; format: physicochemical
Summary of the method: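 Peptide dried from methanol and reconstituted at 1 mM in 1 mM HEPES pH 7.4 with 5% methanol; concentration set by A280. CD spectra recorded 300–190 nm at 25 °C in a 0.2 cm cuvette, converted to mean residue ellipticity and deconvoluted for secondary structure; duplicate means.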

[5] = Experimental LogD (partition coefficient); conditions: for logD: not stated, Partition Coeff LogD
physchem [6] = assay: physchem
physchem [7] = assay: physchem; remark: listed apart in the source
physchem [8] = assay: physchem; remark: listed apart in the source
[9] = 0% FBS 4Hr, read-out: p53 reporter assay EC50
[10] = 0% FBS 16Hr, read-out: p53 reporter assay EC50
[11] = 10% FBS 4Hr, read-out: p53 reporter assay EC50
[12] = 0% FBS 4Hr, read-out: TETCHO: Counterscreen EC50
[13] = pH 7, aqueous buffer, kinetic from dmso stock, pH 7, PBS, read-out: Solubility
[14] = 10% FBS 16Hr, read-out: p53 reporter assay EC50
[15] = read-out: Cell EC50 (4 hr, 0% FBS), p53 reporter assay, 4 hr, 0% FBS
[16] = read-out: Cell EC50 (16 hr, 10% FBS), p53 reporter assay, 16 hr, 10% FBS
[17] = 10% FBS 16Hr, read-out: TETCHO: Counterscreen EC50
[18] = 4 hours, 0% serum, read-out: TETCHO Counterscreen EC50
[19] = 0% FBS 4Hr, read-out: p53 reporter assay: EC50

SMILES	EC50 [1, 9] [µM]	TETCHO: Counterscreen % Effect ([2]; 0% FBS 4Hr) [%]	EC50 [2, 12] [µM]	solubility kinetic [3, 13] [µM]	CD % Helicity [4] [%]	logD [5]	p53 reporter assay % Effect ([1]; 0% FBS 4Hr) [%]	p53 reporter assay % Effect ([1]; 10% FBS 16Hr) [%]	EC50 [1, 14] [µM]	EC50 [1, 15] [µM]	EC50 [1, 16]	TETCHO: Counterscreen % Effect ([2]; 10% FBS 16Hr) [%]	EC50 [2, 17] [µM]	further results
CC(=O)N[C@@H](CC(C)C)C(=O)N[C@H](C(=O)N[C@@H](Cc1ccccc1)C(=O)N[C@]1(C)CCCCCCC=CCCC[C@@](C)(C(=O)N[C@@H](CO)C(=O)N[C@@H](C)C(=O)N[C@@H](C)C(N)=O)NC(=O)[C@@H](CC2CCC2)NC(=O)[C@H](CC(C)C)NC(=O)[C@H](CCC(N)=O)NC(=O)[C@H](Cc2c[nH]c3ccccc23)NC(=O)[C@H](Cc2ccc(O)cc2)NC(=O)[C@H](CCC(=O)O)NC1=O)[C@@H](C)O [MP-009]	8.27	4.797	> 50.6	79.3 (≈ 142 µg/mL)	23.85	2.7	–	–	–	–	–	–	–	EC50 [1, 10]: 29.5 µM; EC50 [1, 11]: > 50.6 µM; TETCHO: Counterscreen % Effect ([2]; 0% FBS 16Hr): -1.31%; EPSA (physchem [6]): 204 A^2
CC(=O)N[C@@H](C(=O)N[C@H](C)C(=O)N[C@H](Cc1c[nH]c2cc(F)ccc12)C(=O)N[C@H](Cc1ccc(O)cc1)C(=O)N[C@H](C)C(=O)N[C@]1(C)CCCC=CCCC[C@](C)(C(=O)N[C@H](CC(C)C)C(=O)N[C@H](CO)C(=O)N[C@H](C)C(=O)N[C@H](C)C(=O)N[C@H](C)C(=O)N[C@H](C)C(=O)N[C@H](C)C(=O)N[C@H](C)C(N)=O)NC(=O)[C@@H](CCC(N)=O)NC(=O)[C@@H](CCC(=O)O)NC(=O)[C@@H](Cc2ccc(C(F)(F)F)cc2)NC1=O)[C@H](C)O [MP-042] (Ac-[dT][dA][dTrp(6-F)][dY][dA][R5][dPhe(4-CF3)][dE][dQ][R5][dL][dS][dA][dA][dA][dA][dA][dA]-NH2; staple 6-10)	0.612	12.4	> 50.4	–	57.4	–	91.28	98.03	0.284	0.6	0.28 µM and 0.3 µM	2.411	> 50.4	overall improvement of cellular activity compared to initial parent peptide (MP-769) ([1]; 10% serum, 16-hour): > 178 fold; EC50 [2, 18]: > 50 µM
CC(=O)N[C@@H](CCCCN=[N+]=[N-])C(=O)NCCC(=O)N[C@@H](CC(C)C)C(=O)N[C@H](C(=O)N[C@@H](Cc1ccccc1)C(=O)N[C@]1(C)CCCCCCC=CCCC[C@@](C)(C(=O)N[C@@H](CO)C(=O)N[C@@H](C)C(=O)N[C@@H](C)C(N)=O)NC(=O)[C@H](CC2CCC2)NC(=O)[C@H](CCC(N)=O)NC(=O)[C@H](C)NC(=O)[C@H](Cc2c[nH]c3ccccc23)NC(=O)[C@H](Cc2ccc(O)cc2)NC(=O)[C@H](Cc2c[nH]c3ccccc23)NC1=O)[C@@H](C)O [MP-185] (Ac-[Lys(N3)][βAla]LTF[R8]WYWAQ[Cba][S5]SAA-NH2; staple 6-13)	0.137	4.64	> 50	2 (≈ 4.05 µg/mL)	–	4	–	–	–	–	–	–	–	EC50 [1, 10]: 0.214 µM; p53 reporter assay % Effect ([1]; 10% FBS 4Hr): 14.92%; EC50 [1, 11]: 1.86 µM; TETCHO: Counterscreen % Effect ([2]; 0% FBS 16Hr): 9.8%; EPSA (physchem [6]): 226 A^2
CC(=O)N[C@@H](CCCCN=[N+]=[N-])C(=O)NCCC(=O)N[C@@H](CC(N)=O)C(=O)N[C@H](C(=O)N[C@@H](Cc1ccccc1)C(=O)N[C@]1(C)CCCCCCC=CCCC[C@@](C)(C(=O)N[C@@H](CC(N)=O)C(=O)N[C@@H](CC(N)=O)C(=O)N[C@@H](CC(N)=O)C(N)=O)NC(=O)[C@H](CC2CCC2)NC(=O)[C@H](CCC(N)=O)NC(=O)[C@H](CC(N)=O)NC(=O)[C@H](Cc2c[nH]c3ccccc23)NC(=O)[C@H](Cc2ccc(O)cc2)NC(=O)[C@H](CC(N)=O)NC1=O)[C@@H](C)O [MP-359, azide-ATSP-7041 (L1N, E5N, A8N, S12N, A13N, A14N)] (Ac-[Lys(N3)][βAla]NTF[R8]NYWNQ[Cba][S5]NNN-NH2; staple 6-13)	–	8.184	> 50.6	53.7 (≈ 113 µg/mL)	39.55	2.12	–	–	–	–	–	–	–	EPSA (physchem [7]): 238 A^2; EC50 [1, 19]: 32.2 µM
CC(C)C[C@@H](NC(=O)[C@@]1(C)CCCC=CCCC[C@@](C)(NC(=O)[C@@H](C)NC(=O)[C@@H](Cc2ccc(O)cc2)NC(=O)[C@@H](Cc2c[nH]c3cc(F)ccc23)NC(=O)[C@@H](C)NC(=O)[C@H](N)[C@H](C)O)C(=O)N[C@H](Cc2ccc(C(F)(F)F)cc2)C(=O)N[C@H](CCC(=O)O)C(=O)N[C@H](CCC(N)=O)C(=O)N1)C(=O)N[C@H](CO)C(N)=O [MP-795] (H-[dT][dA][dTrp(6-F)][dY][dA][R5][dPhe(4-CF3)][dE][dQ][R5][dL][dS]-NH2; staple 6-10)	5.18	35.97	> 50.4	–	–	2.32	142.6	21.51	> 50.4	–	–	0.2467	> 50.4	solubility kinetic ([3]; pH 7, Solubility): 1 µM (≈ 1.55 µg/mL); EPSA (physchem [8]): 234 A^2
CC(=O)N[C@@H](C(=O)N[C@H](C)C(=O)N[C@H](Cc1c[nH]c2cc(F)ccc12)C(=O)N[C@H](Cc1ccc(O)cc1)C(=O)N[C@H](C)C(=O)N[C@]1(C)CCCC=CCCC[C@](C)(C(=O)N[C@H](CC(C)C)C(=O)N[C@H](CO)C(N)=O)NC(=O)[C@@H](CCC(N)=O)NC(=O)[C@@H](CCC(=O)O)NC(=O)[C@@H](Cc2ccc(C(F)(F)F)cc2)NC1=O)[C@H](C)O [MP-797] (Ac-[dT][dA][dTrp(6-F)][dY][dA][R5][dPhe(4-CF3)][dE][dQ][R5][dL][dS]-NH2; staple 6-10)	3.61	17.03	> 50.4	–	26.6	–	74.63	8.593	> 50.4	3.6	> 50 µM	-11.41	> 50.4	improvement of cellular activity vs MP-769 ([1]; 0% serum, 4-hour assay): 3 fold; EC50 [2, 18]: > 50 µM; EPSA (physchem [8]): 198 A^2
CC(=O)N[C@@H](CCCCN=[N+]=[N-])C(=O)NCCC(=O)N[C@@H](CC(C)C)C(=O)N[C@H](C(=O)N[C@@H](Cc1ccccc1)C(=O)N[C@]1(C)CCCCCCC=CCCC[C@@](C)(C(=O)N2CCC[C@@H]2C(=O)N2CCC[C@@H]2C(=O)N2CCC[C@@H]2C(=O)N2CCC[C@@H]2C(=O)N2CCC[C@@H]2C(=O)N2CCC[C@@H]2C(N)=O)NC(=O)[C@H](CC2CCC2)NC(=O)[C@H](CCC(N)=O)NC(=O)[C@H](C)NC(=O)[C@H](Cc2c[nH]c3ccccc23)NC(=O)[C@H](Cc2ccc(O)cc2)NC(=O)[C@H](CCC(=O)O)NC1=O)[C@@H](C)O [MP-896]	–	-4.745	> 50.4	–	19.15	–	–	–	–	> 50	> 50 µM	-12.59	> 50.4	p53 reporter assay: % Effect ([1]; 0% FBS 4Hr): 28.91%; EC50 [1, 19]: > 50.4 µM; p53 reporter assay: % Effect ([1]; 10% FBS 16Hr): 32.76%; EC50 ([1]; 10% FBS 16Hr, read-out: p53 reporter assay: EC50): > 50.4 µM; Solubility [3]: P.B.; Solubility ([3]; pH 7, PBS): Poorly Behaved; Aqueous solution helicity ([4]; circular dichroism): 19.15%; Partition Coeff LogD [5]: Poorly Behaved
